Tests used:
[1] = target: T1, α-amylase (Sus scrofa, UniProt P00690); test: α-amylase inhibition (anti-diabetic); format: biochemical; conditions: at 100 µg/mL; mean ± SE, n = 3
T1 sequence (P00690 16-511): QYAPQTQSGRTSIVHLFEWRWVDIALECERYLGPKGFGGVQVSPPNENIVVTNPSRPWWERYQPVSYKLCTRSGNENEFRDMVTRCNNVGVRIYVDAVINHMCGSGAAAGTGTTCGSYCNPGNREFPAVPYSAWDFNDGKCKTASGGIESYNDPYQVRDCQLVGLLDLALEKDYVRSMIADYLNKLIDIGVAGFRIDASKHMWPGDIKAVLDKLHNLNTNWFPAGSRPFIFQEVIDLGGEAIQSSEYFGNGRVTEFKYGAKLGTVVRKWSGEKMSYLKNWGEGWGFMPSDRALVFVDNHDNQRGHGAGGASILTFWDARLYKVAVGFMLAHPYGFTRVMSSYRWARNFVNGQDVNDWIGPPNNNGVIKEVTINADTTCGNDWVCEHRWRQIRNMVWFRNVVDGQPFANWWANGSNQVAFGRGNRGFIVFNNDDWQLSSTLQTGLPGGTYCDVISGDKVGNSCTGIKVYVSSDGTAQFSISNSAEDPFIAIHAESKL
Method: 3.3. Anti-diabetic activity […]
tetrahydrate in 8.0 mL of 2 M NaOH and 20 mL of 96 mM of DNSA solution). The […]
(§1) The absorbance was measured at 540 nm using a UV-Visible spectrophotometer. The IC50 of each tested sample was calculated by plotting a curve using a series of sample concentrations against the percent of α-amylase inhibition.
(§2) The inhibition percentage (%) of the α-glucosidase enzyme was determined using the […]
(§3) standard drug. Five μL of the α-glucosidase solution (10 units mL−1, 0.1moll−1 potassium phosphate buffer, pH 6.8) was pre -mixed with 10 μL of the sample solution at different concentrations (in 10% DMSO) i n 620 μL of 0.1 moll−1 potassium […]
(§4) phosphate buffer (pH 6.8). […]
(§5) phenyl glucopyranoside (pNPG, 10 mmoll−1) as a substrate was added to the mixture […]
(§6) minutes, followed by the addition of 650 μL of 1 moll−1 Na2CO3 solution to terminate the reaction. The amount of released product (p-nitro phenol) was measured at 410 […]
activity. […] The IC50 of each tested sample was calculated by plotting a curve using a series of sample concentrations against the percent of α-glucosidase inhibition. […]
(§7) In this study, we assessed the inhibition percentage of the acetylcholinesterase (AChE) enzyme using Ellman's method with donepezil as the standard drug. […] After incubation, 5 µL of AChE at a concentration of 0.3 U/mL was added to start the reaction, and the absorbance […]

[2] = target: α-glucosidase (Saccharomyces cerevisiae, UniProt P53341); format: biochemical
Method: as §1, §2, §3, §4, §5, §6
activity. The inhibition assay was performed in triplicate for all tests. The IC50 of each tested sample was calculated by plotting a curve using a series of sample concentrations against the percent of α-glucosidase inhibition.
3.4. Anti-Alzheimer's activity
as §7

Chain of α-glucosidase (P53341 whole entry): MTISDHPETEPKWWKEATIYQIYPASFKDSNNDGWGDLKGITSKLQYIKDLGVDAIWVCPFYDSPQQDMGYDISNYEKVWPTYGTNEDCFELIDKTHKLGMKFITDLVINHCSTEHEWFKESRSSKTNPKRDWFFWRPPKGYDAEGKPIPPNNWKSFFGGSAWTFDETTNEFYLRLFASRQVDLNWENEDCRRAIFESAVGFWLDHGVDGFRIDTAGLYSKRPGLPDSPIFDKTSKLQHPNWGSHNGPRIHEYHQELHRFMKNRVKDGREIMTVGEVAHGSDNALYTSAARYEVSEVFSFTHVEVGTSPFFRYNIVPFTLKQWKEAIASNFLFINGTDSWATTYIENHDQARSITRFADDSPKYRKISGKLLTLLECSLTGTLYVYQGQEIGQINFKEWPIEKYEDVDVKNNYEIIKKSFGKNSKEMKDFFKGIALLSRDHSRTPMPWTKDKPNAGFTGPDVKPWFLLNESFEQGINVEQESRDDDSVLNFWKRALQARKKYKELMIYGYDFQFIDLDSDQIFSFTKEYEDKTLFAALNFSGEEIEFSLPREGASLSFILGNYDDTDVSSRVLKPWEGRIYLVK

C[C@H]1O[C@H](O[C@H]2[C@H](O)[C@@H](O)[C@@H](O[C@H]3[C@H](O)[C@@H](O)C(O)O[C@@H]3CO)O[C@@H]2CO)[C@H](O)[C@@H](O)[C@@H]1N[C@H]1C=C(CO)[C@@H](O)[C@H](O)[C@H]1O (some centres unmarked) [Acarbose]
α-Amylase Inhib. (%) [1]: 54.96 ± 0.10 Acarbose %
α-Glucosidase Inhib. (%) [2]: 44.71 ± 0.10 Acarbose %

— paper PMC11859031, “Assessment of the In Vitro Biological Activities of Schiff Base-Synthesized Copper Oxide Nanoparticles as an Anti-Diabetic, Anti-Alzheimer, and Anti-Cancer Agent” (Pharmaceutics, 2025)
